Here are results for 7 molecules from patent publication US4957864A, “Novel plasminogen activator and its preparation process” (Mitsui Toatsu Chemicals, Incorporated, priority 1982, dated 1990).

By inhibition is commonly meant the drop in the measured response relative to a control, in per cent.

Data set [1] deals with tissue activator obtained from human kidney (Homo sapiens, UniProt P00750). Put plainly: biochemical. The data set is classed as biochemical.
Data set [2] has as its target T1, vascular plasminogen activator (Homo sapiens, UniProt P00750).
T1 construct: from tissue; host or cells: blood vessel wall
The data set is described as follows: biochemical.

Data set [3] can be described thus: isoelectric point by polyacrylamide gel isoelectric-point electrophoresis. The following applies: 7.5% polyacrylamide gel, 8M urea, 1% ampholite. Type of data set: physicochemical. How it is done:
The measurement of the isoelectric point of the purified tissue activator was carried out in a 7.5% polyacrylamide gel containing 8M urea and 1% ampholite in accordance with the method proposed by Mertz et al. [Biochem. Biophys. Res. Commun. 49, 84-91 (1972)]. The sample was solubilized in an 8M urea solution containing 2 mM EDTA and 1% ampholite. Its pH was determined by the method proposed by Finlayson et al. [Anal. Biochem. 40, 292-311 (1971)].

Data set [4] has as its system fibrin. The data set is described as follows: fibrinolytic activity by the fibrin-agar plate method, compared with urokinase (UKIU). Type of data set: biochemical. The method, then:
The fibrinolytic activity of the tissue activator was compared with that of urokinase and was expressed in terms of the international unit (UKIU). […] The activity of the tissue activator was determined by measuring the lytic areas of diluted samples within the range of 120-200 mm^2. […] The enzymatic activity of the tissue activator was standardized by the enzymatic activity of urokinase and the percentage recovery of the tissue activator and its specific activity relative to UKIU/ml were measured after each of several purification stages.
The non-specific fibrin-resolving activity was measured on a fibrin-agar plate free of plasminogen.

Data set [5] deals with anti-urokinase IgG. The data set is described as follows: affinity chromatography on anti-urokinase IgG-Sepharose column. Type of data set: binding, goat. An excerpt:
The employed urokinase sample was identical to that analyzed in accordance with the SDS-polyacrylamide gel electrophoresis.
The gel was washed with a 0.02M Tris-HCl solution of pH 7.4 containing 1.0M NaCl at least 20 times in volume that of the gel.

In data set [6] the test system is antivascular plasminogen activator serum. The data set is described as follows: double immunodiffusion with antivascular plasminogen activator and anti-urokinase serums. Type of data set: binding. From the text:
Using the antivascular plasminogen activator and anti-urokinase serums, the antigenicities of the both activators were studied in accordance with the double immunodiffusion method. As a result, both urokinase and the vascular plasminogen activator developed individually a single precipitation curve between themselves and their corresponding anti-urokinase or antivascular plasminogen activator serum.
In order to study whether the activators obtained respectively from kidney tissue and the wall of a blood vessel have the same antigenicity as urokinase, the elution profile of proteins and active ingredient of the activator obtained by the antiurokinase IgG-Sepharose affinity chromatographic treatment of the purified activator of Example 1-(6) and the activator of Example 1-(3) was compared with the elution profile of urokinase. […] The protein contained in the effluents was serum albumine incorporated in the commercially available urokinase used in this experiment. […] When the partially-purified sample obtained in Example 1-(3) was poured in the same column, about 15% of the poured activity was adsorbed on the column and eluted with the glycine solution of pH 2.4. […]

Data set [7] relates to insolubilized fibrin monomer. Put plainly: adsorption onto fibrin-Sepharose column. The data set is classed as binding, human.
The nature of data set [8]: hydrolytic activity against fluorescent 4-methylcoumaryl-7-amide substrates. The data set is classed as biochemical. The following applies: 3093-V, 3095-V, 3096-V, 3097-V. How it is done:
The thus-purified tissue activator was tested with various fluorescent substrates by adding 50 μl of the tissue activator sample in a 0.02M Tris-HCl solution of pH 8.0 containing 0.1M NaCl and 0.02% Tween 80 and 2.0 ml of the substrate in the same buffer solution. The following materials were used as the fluorescent substrates:
Boc-L-valyl-L-prolyl-L-arginine-4-methyl-coumaryl-7-amide;
Carbobenzoxy-L-phenylalanyl-L-arginine 4-methylcoumaryl-7-amide;
L-prolyl-L-phenylalanyl-L-arginine-4-methylcoumaryl-7-amide; and
Glutaryl-glycyl-L-arginine-4-methylcoumaryl-7-amide.
The initial release of 7-amino-4-methylcoumarine (AMC) was measured by a fluorometer at 37° C. in a Shimadzu Fluorospectrophotometer Model RF-520. The fluorometer had been set in such a manner that a radiation of a fluorescent light of 380 nm permitted to emit an excited fluorescent light of 460 nm, and also so adjusted that a 0.1% DMSO solution containing […] gave a relative fluorescent unit of 1.0. The hydrolytic activity of the purified tissue activator was measured using a chromogenic substrate, by adding 200 μl of a tissue activator sample, 200 μl of a 0.1M Tris-HCl solution of pH 8.0 containing 0.1M NaCl and 0.02% Tween 80, and 200 μl of a 3 mM S-2251 solution or a 1 mM S-2288 solution. The initial release of p-nitroaniline was measured by a spectrophotometer at 405 nm and 37° C. in a glass cell. […]

The nature of data set [9]: hydrolytic activity against chromogenic substrate S-2288. Type of data set: biochemical. The following applies: activator 100 UKIU/ml; 37° C., 405 nm. The method, then:
(§1) The initial release of 7-amino-4-methylcoumarine (AMC) was measured by a fluorometer at 37° C. in a Shimadzu Fluorospectrophotometer Model RF-520. The fluorometer had been set in such a manner that a radiation of a fluorescent light of 380 nm permitted to emit an excited fluorescent light of 460 nm, and also so adjusted that a 0.1% DMSO solution containing […] gave a relative fluorescent unit of 1.0. The hydrolytic activity of the purified tissue activator was measured using a chromogenic substrate, by adding 200 μl of a tissue activator sample, 200 μl of a 0.1M Tris-HCl solution of pH 8.0 containing 0.1M NaCl and 0.02% Tween 80, and 200 μl of a 3 mM S-2251 solution or a 1 mM S-2288 solution. The initial release of p-nitroaniline was measured by a spectrophotometer at 405 nm and 37° C. in a glass cell. The initial velocity of the hydrolytic activity was expressed in terms of ΔmA/min for the chromogenic substrate and Δ%/min for the fluorescent substrate.
For tissue plasminogen activator, H-D-isoleucyl-L-prolyl-L-arginine-p-nitroanilide dihydrochloride (S-2288).

Data set [10] in a line: storage and pH stability of activity in buffer solution. Type of data set: physicochemical. How it is done:
The same result was obtained even when 1M NH4 SCN or 0.02% Tween 80 and 0.1M NaCl were incorporated in the buffer solution.
The stability of the plasminogen activator of the present invention was investigated in the pH
hours in a buffer solution range of 1-10 at 4° C. for 24 containing 0.5M NaCl and 0.02% Tween 80.

Data set [11] is described as follows: hydrolytic activity against chromogenic substrate S-2251. The data set is classed as biochemical. The conditions noted are these: activator 100 UKIU/ml; 37° C., 405 nm. How it is done: as §1
For plasmin, H-D-valyl-L-leucyl-L-lysine-p-nitroanilide dihydrochloride (S-2251);

Data set [12] deals with fibrin. The following applies: M.W. 33,000 urokinase sample; cited from earlier work.
Where [13] appears, read: Aprotinin 50 KIU/ml, iodoacetamide 10 mM, soybean trypsin 50 mg/ml, L-arginine 100 mM, diisopropyl fluorophosphate 5 mM, 37° C., 1 hour.
The mark [14] stands for this setting: diisopropyl fluorophosphate 5 mM, L-arginine 0.1M, Trasylol 50 KIU/ml, iodoacetamide 10 mM, soybean trypsin inhibitor 50 μg/ml.

Like-named read-outs stand apart in the source and are kept apart here. Some results are limits rather than exact numbers.

Sequence of tissue activator obtained from human kidney (P00750 36-562): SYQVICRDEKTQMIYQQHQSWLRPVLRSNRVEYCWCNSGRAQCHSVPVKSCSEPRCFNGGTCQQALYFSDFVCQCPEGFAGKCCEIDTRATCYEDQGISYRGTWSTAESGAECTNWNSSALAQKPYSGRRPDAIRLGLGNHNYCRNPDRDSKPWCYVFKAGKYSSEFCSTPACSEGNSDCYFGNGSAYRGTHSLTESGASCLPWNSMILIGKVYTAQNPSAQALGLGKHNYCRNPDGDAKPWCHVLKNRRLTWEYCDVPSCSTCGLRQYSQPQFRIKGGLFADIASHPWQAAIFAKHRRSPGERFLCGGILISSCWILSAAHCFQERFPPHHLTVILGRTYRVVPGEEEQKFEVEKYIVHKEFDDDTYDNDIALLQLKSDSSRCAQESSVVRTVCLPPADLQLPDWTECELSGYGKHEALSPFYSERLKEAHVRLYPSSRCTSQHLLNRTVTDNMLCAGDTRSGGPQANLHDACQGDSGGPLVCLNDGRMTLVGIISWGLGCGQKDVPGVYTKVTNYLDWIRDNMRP
T1 sequence (P00750 36-562): as above

In the case of Aprotinin [Trasylol], the “inhibition of amide-decomposing activity against S-2288” value in [1] (setting [13]) is given as “not inhibited”. For the same molecule, the “activity inhibition of the vascular plasminogen activator” value in [2] (setting [14]) is “no changes”.
Taken in the same sequence, the figures for `NC(=O)CI` [iodoacetamide] were “not inhibited” and “no changes”.
“vascular plasminogen activator: purified plasminogen activator from human blood vessel walls; single-chain glycoprotein, molecular weight about 70,000”: the “isoelectric point (pI) of the main band” value in data set [3] was 7.8. Further, the Specific activity in [4] (Table 1, purification stages of tissue plasminogen activator from blood vessels) is 57,400 UKIU/mg. The “specific activity of the final plasminogen activator” value in data set [4] (blood vessel derived, after final purification) was 45,000-80,000 IU/mg proteins. Also, the “adsorption / affinity for anti-urokinase IgG-Sepharose” value (from here on “adsorption / affinity”) in [5] is on record as “did not show any affinity”. The “crosslinking of precipitation curves / with antiserum in immunodiffusion” value in [6] is on record as “no crosslinking was observed”.
On to “kidney-originated activator: purified tissue plasminogen activator obtained from human kidney in Example 1-(6); molecular weight about 72,000”, for which the “isoelectric point (pI) of the main band” value in data set [3] came to 8.2. Further, in [7], the “adsorption onto fibrin-Sepharose column” value is on record as “adsorbed completely” and the “total poured activity recovered by elution with 2M NH4 SCN from fibrin-Sepharose” value was “at least 90%”. In addition, in data set [8], the “hydrolytic activity to substrates other than S-2251 and S-2288” value is “did not show hydrolytic activity”. Moreover, the Specific activity in data set [4] (Table 2, purification stages of tissue plasminogen activator obtained from kidneys) is reported as 25,700 UKIU/mg. In data set [4] (highly purified form), the “specific activity relative to human kidney dried with acetone” value is on record as 30,000-45,000 times. The “hydrolytic activity against S-2288” value in data set [9] is reported as 70 ΔmA/min. The “adsorption / affinity” value in [5] is recorded as “passed through the column without adsorption”. In data set [10] (4° C., 24 hours, buffer containing 0.5M NaCl and 0.02% Tween 80, pH 1-10 tested), the “pH range in which the activator was stable” value is listed as 2-10. Also, the activity after storage result in [10] (4° C., buffer solution of pH 7.4, 2 weeks) is “did not give any activity reduction”. For the same molecule, the reduction of activity in [10] (pH 1.0, 4° C., 24 hours, 0.5M NaCl and 0.02% Tween 80) stood at 70%. The “crosslinking of precipitation curves / with antiserum in immunodiffusion” value in data set [6] is listed as “ready crosslinking reaction”. The “hydrolytic activity against S-2251” value in [11] is given as 88 ΔmA/min.
For the molecule urokinase [reference compound], the “adsorption onto fibrin-Sepharose column” value in data set [7] is reported as “passed through the column”. In data set [4] (10 μl of a 1 IU/ml solution), the “lytic area on fibrin-agar plate” value is given as 156 mm^2. Also, in [12], the “specific activity of high-purity human urokinase used as immunogen” value was 202,400 IU/mg. The “adsorption / affinity” value in data set [5] is recorded as “adsorbed strongly”.
For the molecule `N=C(N)NCCC[C@H](N)C(=O)O` [L-arginine], the inhibition at 100000 µM in data set [1] (read-out: inhibition of amide-decomposing activity against S-2288) was at most 26%. In addition, the inhibition at 50 µg/mL in [2] (read-out: activity inhibition of the vascular plasminogen activator) is 20%.

B1: soybean trypsin inhibitor: soybean trypsin inhibitor used as protease inhibitor (protein, UniProt P01070 25-205, looked up)
Trypsin inhibitor A: DFVLDNEGNPLENGGTYYILSDITAFGGIRAAPTGNERCPLTVVQSRNELDKGIGTIISSPYRIRFIAEGHPLSLKFDSFAVIMLCVGIPTEWSVVEDLPEGPAVKIGENKDAMDGWFRLERVSDDEFNNYKLVFCPQQAEDDKCGDIGISIDHDDGTRRLVVSKNKPLVVQFQKLDKESL
Turning to B1, the “inhibition of amide-decomposing activity against S-2288” value in data set [1] is “not inhibited”. Further, in [2], the “activity inhibition of the vascular plasminogen activator” value is listed as “no changes”.
